One block for each molecule: values may come before it. Where no end group is shown, it is not given here. [ ]: non-standard residue; d: D form. d2Nal = N[C@H](Cc1ccc2ccccc2c1)C(=O)O
Legend:
XIAP-inhibited caspase-3 = molecular target: T1, XIAP-inhibited caspase-3 (Homo sapiens, UniProt P98170); experiment: IAP derepression assay: Ac-DEVD-AFC hydrolysis by caspase-3 in the presence of GST-XIAP; format: biochemical
T1 construct: in a caspase derepression assay using full length XIAP; made in house; host or cells: bacteria
Method: The ratio of Vmax for hydrolysis of Ac-DEVD-AFC in the presence and absence of the candidate mixture was calculated and used to identify those that contain an agent that derepresses an IAP-inhibited caspase.
(§1) Each mixture was aliquoted in a 25 microliter volume and in duplicate to a well of a 96 well microtiter plate. […] Fluorescence of liberated AFC was immediately detected from each well for 30 minutes at 30 second intervals. The Vmax for hydrolysis of AC-DEVD-AFC from each well was measured using the softmax software package.

[1] = test system: NCI panel of 60 tumor cell lines; experiment: NCI panel of 60 tumor cell lines, 48 hours, protein-based colorimetric assay; parameters: species or system human
Method: Selected polyphenylurea compounds were tested on the National Cancer Institute (NCI) panel of 60 tumor cell lines (see FIG. 28a and FIG. 29).

[2] = test system: chronic lymphocytic leukemia (CLL) B-cells; experiment: Freshly isolated CLL B-cells from patients, annexin-V/propidium iodide; format: cell-based, human; settings: 20-24 hours
Description: (§2) Since many tumor and leukemia cell lines proliferate faster than normal cells, it was investigated whether the polyphenylurea compounds could induce apoptosis of non-replicating malignant cells. […] Thus, cell replication is not required for sensitivity to the disclosed poly-phenylurea compounds.

full length XIAP = full length XIAP (Homo sapiens, UniProt P98170); experiment: Potency of IAP antagonists in vitro (Table VIII; caspase derepression / SMAC competition with full length XIAP)
Jurkat leukemia cells = experiment: Jurkat leukemia cell death, Annexin V/propidium iodide flow cytometry; format: cell-based; settings: Homo sapiens, Jurkat, 20 h, 20 hours, read-out: % nonviable cells
Method: (§3) The following assay was used to test the ability of individual compounds from the TPI 1396 and TPI 1391 libraries to induce apoptosis of cultured tumor cell lines. Each of the compounds listed in Table IX was individually added to Jurkat leukemia cells (6.25×10^5 cells/mL) in RPMI containing 2.5% FBS at various concentrations for 20 hours. After incubation, cells were washed and stained with FITC-conjugated Annexin V antibody and propidium iodide (Biovision; Mountain View, Calif.). Cells were incubated for 20 minutes at room temperature in the dark and fluorescence was measured by flow cytometry (FACScan, Immunocytometry system; Becton-Dickinson; San Jose, Calif.). Cells staining positive for Annexin V were deemed non-viable.
(§4) The TPI I396-34 and TPI 1391-28 compounds were further tested as set forth below.

[3] = test system: caspase-3 and caspase-7 activity in Jurkat cells; experiment: Caspase-3 and caspase-7 activity in whole Jurkat cells, cell permeable substrate; format: cell-based; settings: 8 μM, 20 hours
[4] = test system: acute myelogenous leukemia (AML) blasts; experiment: Freshly isolated AML leukemic blasts from patients, annexin-V; format: cell-based, human; settings: 20-24 hours
Description: as §2

[5] = test system: mouse embryo fibroblasts (MEFs) from XIAP -/- mice; experiment: Mouse embryo fibroblasts from XIAP -/- and wild type mice, MTT assay; format: cell-based; settings: non-transformed versus SV40 large T transformed MEFs
Method: Cells were either tested directly at low passage (FIGS. 38A and C) or after transformation by infection with a retrovirus encoding SV40 large T antigen (FIGS. 38B and D). […] Cell viability was measured by MTT assay, expressing data as a percentage relative to control, untreated cells. Data shown in FIG. 38A-D represent mean±standard deviation of triplicate determinations.

Smac-7 mer/XIAP-BIR2 = experiment: Competition assay Smac-7 mer/XIAP-BIR2 IC-50 uM | AVG
caspase-3 = molecular target: T2, caspase-3 (Homo sapiens, UniProt P42574); experiment: Caspase assay without XIAP (candidate mixture and caspase 3 only); format: biochemical; settings: TPI 1239 library, absence of XIAP
T2 construct: made in house; host or cells: bacteria
Method: Caspase activity was assayed by release of 7-amino-4-trifluoromethyl-coumarin (AFC) from Ac-DEVD-AFC synthetic peptides using a Molecular Devices Spectromax 340 (see Zhou et al., J. Biol. Chem. 272:7797-7800 (1997)). […] The ratio of Vmax for hydrolysis of Ac-DEVD-AFC in the presence and absence of the candidate mixture was calculated and used to identify those that contain an agent that derepresses an IAP-inhibited caspase.
as §1, with “Screening of each mixture from the DCR390, TPI 1239 or TPI 1328 library, respectively, using the above described assay was carried out as follows. Each” for “Each”
Results of the screen for the DCR390 library are shown in Table I. Sets of mixtures having the same position fixed with different respective amino acids are arranged in 6 sections identified with the position number. […] The mixtures in each section are arranged in descending order according to apparent velocity in the second column.

[6] = Jurkat leukemia cell death, Annexin V/propidium iodide flow cytometry; format: cell-based; settings: human, 20 hours, read-out: % nonviable cells
Method: as §3, §4

[7] = molecular target: BIR3RING (XIAP fragment) (human) (UniProt P98170); experiment: fluorescence polarization; 20 nM rhodamine-SMAC, BIR3RING titrated
[8] = molecular target: GST-BIR2 (glutathione-S-transferase-BIR2 fusion protein of XIAP) (human) (UniProt P98170); experiment: fluorescence polarization; 20 nM rhodamine-SMAC, GST-BIR2 0 to 495 nM
Sequence of GST-BIR2 (glutathione-S-transferase-BIR2 fusion protein of XIAP) (human) (P98170 124-240): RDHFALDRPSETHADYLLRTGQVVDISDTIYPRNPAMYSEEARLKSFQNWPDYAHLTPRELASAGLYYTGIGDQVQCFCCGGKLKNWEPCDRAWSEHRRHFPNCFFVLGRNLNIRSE

T1 sequence (P98170 whole entry): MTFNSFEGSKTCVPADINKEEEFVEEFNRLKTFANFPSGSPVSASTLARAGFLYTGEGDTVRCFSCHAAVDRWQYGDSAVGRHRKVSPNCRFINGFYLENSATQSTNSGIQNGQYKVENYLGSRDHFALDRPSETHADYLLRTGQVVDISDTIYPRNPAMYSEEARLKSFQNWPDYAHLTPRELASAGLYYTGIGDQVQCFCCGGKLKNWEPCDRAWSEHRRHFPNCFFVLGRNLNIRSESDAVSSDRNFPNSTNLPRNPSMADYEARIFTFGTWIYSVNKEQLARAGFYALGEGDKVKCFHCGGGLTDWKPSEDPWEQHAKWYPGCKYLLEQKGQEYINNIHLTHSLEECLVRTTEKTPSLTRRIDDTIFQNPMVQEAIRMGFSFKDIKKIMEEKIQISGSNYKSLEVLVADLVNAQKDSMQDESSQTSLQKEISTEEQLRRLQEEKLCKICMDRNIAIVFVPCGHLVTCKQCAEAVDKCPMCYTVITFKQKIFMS
Sequence of BIR3RING (XIAP fragment) (human) (P98170 243-497 limits assumed): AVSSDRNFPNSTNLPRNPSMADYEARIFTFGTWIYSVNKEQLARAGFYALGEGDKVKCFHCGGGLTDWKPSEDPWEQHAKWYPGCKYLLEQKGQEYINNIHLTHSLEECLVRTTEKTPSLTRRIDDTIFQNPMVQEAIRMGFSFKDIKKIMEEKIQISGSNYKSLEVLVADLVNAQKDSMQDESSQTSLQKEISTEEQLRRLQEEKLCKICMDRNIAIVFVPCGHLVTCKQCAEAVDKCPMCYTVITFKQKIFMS
Sequence of full length XIAP (P98170 whole entry): as the sequence (P98170 whole entry) above
T2 sequence (P42574 29-175 limits assumed): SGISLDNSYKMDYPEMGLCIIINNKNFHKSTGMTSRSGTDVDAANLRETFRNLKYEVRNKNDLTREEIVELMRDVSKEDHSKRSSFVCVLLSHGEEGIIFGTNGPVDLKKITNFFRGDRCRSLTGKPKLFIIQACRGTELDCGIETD
T2 sequence (P42574 176-277 limits assumed): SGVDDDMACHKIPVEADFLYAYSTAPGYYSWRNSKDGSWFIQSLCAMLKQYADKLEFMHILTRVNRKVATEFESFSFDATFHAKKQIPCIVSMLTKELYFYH

Molecule: CCCC[C@@H](CN(C(=O)Nc1ccccc1)[C@@H](CNC(=O)Nc1ccccc1)CC1CCCCC1)N(CCc1ccc(O)cc1)C(=O)Nc1ccccc1 [TPI 1396-28]
- Activity* (relative caspase-3 activity: Vmax in the presence of compound / Vmax of controls having caspase-3 and XIAP) (XIAP-inhibited caspase-3; XIAP derepression assay): 1.3
- activity in the caspase derepression assay using full length XIAP (XIAP-inhibited caspase-3; in words): inactive analog
- average (mean) LD50 for the 60 cell lines [1]: > 70 µM
- apoptosis induction [2]: did not induce apoptosis
- EC50 (full length XIAP): > 134000 nM
- cytotoxicity at 1 µM (Jurkat leukemia cells; 1 μM): 13%
- cytotoxicity at 10 µM (Jurkat leukemia cells; 10 μM): 13%
- cytotoxicity at 25 µM (Jurkat leukemia cells; 25 μM): 14%
- cytotoxicity at 50 µM (Jurkat leukemia cells; 50 μM): 13%
- caspase activation in whole cells [3]: did not induce caspase activation
- apoptosis induction [4]: did not induce apoptosis

Molecule: COc1cccc2c1C(=O)c1c(O)c3c(c(O)c1C2=O)C[C@@](O)(C(C)=O)C[C@@H]3O[C@H]1C[C@H](N)[C@H](O)[C@H](C)O1 [daunorubicin]
- selectivity for transformed cells [5]: do not display selectivity for transformed cells

- IC50 (Smac-7 mer/XIAP-BIR2): 5000 ± 4800 nM
Molecule: (D-Trp)-(D-Trp)-(L-Trp)-(D-Nal) ([dW][dW]W[d2Nal]) [TPI 1332-24]

Molecule: H-AVPIAQK-NH2 [SMAC, H-Ala-Val-Pro-Ile-Ala-Gln-Lys-NH2, reference compound]
- Vmax(mix + casp3 + XIAP) / Vmax(casp3 + XIAP) (XIAP-inhibited caspase-3; TPI 1239 library): 3.8 ± 1.7
- Vmax(mix + casp3) / Vmax(casp3) (caspase-3): 0.8 ± 0.0
- cytotoxicity at 20 hours, 5 µM ([6]; 5 μM): 12%
- cytotoxicity at 20 hours, 25 µM ([6]; 25 μM): 16%
- cytotoxicity at 20 hours, 50 µM ([6]; 50 μM): ~16%
- cytotoxicity at 20 hours, 100 µM ([6]; 100 μM): 15%

- Kd [7]: 80 nM
- Kd [8]: 100 nM
Molecule: rhodamine labeled SMAC (rhodamine-SMAC) (peptide)

From US20060258581A1, “Methods and composition for derepressions of IAP-inhibited caspase” (priority 2001, published 2006)
